Measured values: patent US20250313548A1 (Actio Biosciences, Inc., priority 2023, published 2025)
pIC50: −log10 of the molar value.

Each compound was assayed against human, KCNT1 (Homo sapiens (Human), UniProt Q5JUK3) (assay: FLIPR Tl/K Flux Assay). Conditions: HEK293 cells stably expressing human KCNT1; Tl+ flux stimulated with EC80 of agonist Loxapine.
Assay type: cell-based
How it was run: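 HEK293 cells stably expressing human KCNT1 were loaded with FLIPR potassium dye in HEPES/HBSS pH 7.4 with 5 mM probenecid, 1 h at 25 °C, then given test compound for 30 min at 25 °C. Tl+ flux was triggered with chloride-free buffer containing Tl+ and EC80 loxapine and read 160 s. IC50 came from Hill fits of % inhibition.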

Sequence of human, KCNT1 (Q5JUK3 whole entry): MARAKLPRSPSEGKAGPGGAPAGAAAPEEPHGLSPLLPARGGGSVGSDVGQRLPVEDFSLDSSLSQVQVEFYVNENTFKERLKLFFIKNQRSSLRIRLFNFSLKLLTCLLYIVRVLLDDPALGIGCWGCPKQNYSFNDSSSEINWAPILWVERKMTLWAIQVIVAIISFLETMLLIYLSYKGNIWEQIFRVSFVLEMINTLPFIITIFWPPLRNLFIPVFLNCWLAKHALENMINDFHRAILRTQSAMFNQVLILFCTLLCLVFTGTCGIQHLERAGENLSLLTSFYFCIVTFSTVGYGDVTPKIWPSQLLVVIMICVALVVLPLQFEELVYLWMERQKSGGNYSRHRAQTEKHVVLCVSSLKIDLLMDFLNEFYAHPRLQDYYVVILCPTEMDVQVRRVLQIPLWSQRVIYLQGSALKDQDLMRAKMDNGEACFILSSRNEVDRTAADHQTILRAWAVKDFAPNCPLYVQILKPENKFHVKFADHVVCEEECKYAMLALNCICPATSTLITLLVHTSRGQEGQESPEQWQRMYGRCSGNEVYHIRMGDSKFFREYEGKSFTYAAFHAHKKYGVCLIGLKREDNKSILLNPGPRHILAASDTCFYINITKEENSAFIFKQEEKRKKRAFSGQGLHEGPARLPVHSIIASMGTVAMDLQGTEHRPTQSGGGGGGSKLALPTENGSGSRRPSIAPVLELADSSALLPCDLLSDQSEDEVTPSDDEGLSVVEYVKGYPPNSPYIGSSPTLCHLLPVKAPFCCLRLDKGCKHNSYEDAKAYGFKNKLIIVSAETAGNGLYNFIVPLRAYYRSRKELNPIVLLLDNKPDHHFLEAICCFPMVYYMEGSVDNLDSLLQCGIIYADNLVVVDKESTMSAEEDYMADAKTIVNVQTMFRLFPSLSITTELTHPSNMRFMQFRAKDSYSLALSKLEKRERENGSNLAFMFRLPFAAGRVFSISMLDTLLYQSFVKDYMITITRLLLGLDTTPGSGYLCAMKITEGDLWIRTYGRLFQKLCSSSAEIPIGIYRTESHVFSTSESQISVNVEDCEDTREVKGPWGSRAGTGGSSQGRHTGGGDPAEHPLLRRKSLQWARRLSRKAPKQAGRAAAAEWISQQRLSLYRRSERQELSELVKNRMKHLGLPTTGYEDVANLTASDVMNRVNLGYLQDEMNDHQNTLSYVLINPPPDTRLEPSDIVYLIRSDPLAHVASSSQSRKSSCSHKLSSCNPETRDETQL

pIC50	Structure (SMILES)
> 6.60	Cc1cccc(C(=O)N[C@H]2CCc3nn(-c4ccnc(C(F)(F)F)c4)cc32)c1 [Compound I-97a]
> 6.60	O=C(N[C@H]1CCn2nc(-c3cc(C(F)(F)F)ncc3F)cc21)C12CC(F)(C1)C2 [Compound I-552a, (S)-3-Fluoro-N-(2-(5-fluoro-2-(trifluoromethyl)pyridin-4-yl)-5,6-dihydro-4H-pyrrolo[1,2-b]pyrazol-4-yl)bicyclo[1.1.1]pentane-1-carboxamide]
> 6.60	N#Cc1ccc(F)c(C(=O)N[C@H]2CCCn3nc(-c4ccnc(C(F)(F)F)c4)cc32)c1 [Compound I-278a, (S)-5-Cyano-2-fluoro-N-(2-(2-(trifluoromethyl)pyridin-4-yl)-4,5,6,7-tetrahydropyrazolo[1,5-a]pyridin-4-yl)benzamide]
6.00 to 6.30	Cn1nc(C(F)(F)F)cc1C(=O)N[C@H]1CCCc2sc(-c3ccnc(C(F)(F)F)c3)nc21 [Compound I-80a]
< 6.00	Cc1cccc(C(=O)N[C@@H]2CCc3nn(-c4ccnc(C(F)(F)F)c4)cc32)c1 [Compound I-97b]
> 6.60	O=C(N[C@H]1CCCCc2nn(-c3ccnc(C4CC4)c3)cc21)c1cccc(C(F)(F)F)c1 [Compound I-60a]
> 6.60	COc1cc(C(=O)N[C@H]2CCn3nc(-c4cc(C(F)(F)F)ncc4F)cc32)ccn1 [Compound I-145a, (S)—N-(2-(5-Fluoro-2-(trifluoromethyl)pyridin-4-yl)-5,6-dihydro-4H-pyrrolo[1,2-b]pyrazol-4-yl)-2-methoxyisonicotinamide]
> 6.60	O=C(N[C@H]1CCCn2nc(-c3ccnc(C(F)(F)F)c3)cc21)c1cnn(C(F)(F)F)c1 [Compound I-399a]
< 6.00	Cn1nc(C(F)(F)F)cc1C(=O)NC1CCCc2nn(-c3ccn4nccc4c3)cc21 (racemic) [Compound I-38, (rac)-1-Methyl-N-(2-(pyrazolo[1,5-a]pyridin-5-yl)-4,5,6,7-tetrahydro-2H-indazol-4-yl)-3-(trifluoromethyl)-1H-pyrazole-5-carboxamide]
> 6.60	O=C(N[C@H]1CCn2nc(-c3cc(C(F)(F)F)ncc3F)cc21)C12CC(CC(F)(F)F)(C1)C2 [Compound I-539a]
> 6.60	O=C(N[C@H]1CCCc2nc(-c3ccnc(C(F)(F)F)c3)oc21)C12CC(C(F)(F)F)(C1)C2 [Compound I-515a]
> 6.60	Cc1cccc(C(=O)N[C@H]2CCCCc3nn(-c4ccnc(C5CC5)c4)cc32)c1 [Compound I-58a]
> 6.60	CC(F)(F)C12CC(C(=O)N[C@H]3CCn4nc(-c5cc(C(F)(F)F)ncc5F)cc43)(C1)C2 [Compound I-526a, (S)-3-(1,1-Difluoroethyl)-N-(2-(5-fluoro-2-(trifluoromethyl)pyridin-4-yl)-5,6-dihydro-4H-pyrrolo[1,2-b]pyrazol-4-yl)bicyclo[1.1.1]pentane-1-carboxamide]
< 6.00	CCc1cc(-n2cc3c(n2)CC[C@H]3NC(=O)c2cc(C(F)(F)F)nn2C)ccn1 [Compound I-69b]
> 6.60	O=C(NC1CCc2cnc(-c3ccnc(C(F)(F)F)c3)cc21)c1cc(F)cc(F)c1 (stereo not shown) [Compound I-478]
> 6.60	CCc1cc(C#N)cc(C(=O)N[C@H]2CCCn3nc(-c4ccnc(C(F)(F)F)c4)cc32)c1 [Compound I-245a, (S)-3-Cyano-5-ethyl-N-(2-(2-(trifluoromethyl)pyridin-4-yl)-4,5,6,7-tetrahydropyrazolo[1,5-a]pyridin-4-yl)benzamide]
> 6.60	O=C(N[C@H]1CCCc2oc(-c3ccnc(C4CC4)c3)nc21)c1cncc(F)c1 [Compound I-132a, (S)-N-(2-(2-Cyclopropylpyridin-4-yl)-4,5,6,7-tetrahydrobenzo[d]oxazol-4-yl)-5-fluoronicotinamide]
6.00 to 6.30	Cn1nc(CC#N)cc1C(=O)N[C@H]1CCCc2nn(-c3ccnc(C(F)(F)F)c3)cc21 [Compound I-3a]
6.00 to 6.30	Cc1cnc(C(F)(F)F)cc1-c1cc2n(n1)CC[C@H]2NC(=O)c1nc(C(F)(F)F)nn1C [Compound I-482b]
> 6.60	N#Cc1cccc(C(=O)N[C@H]2CCCn3nc(-c4ccnc(C5CC5)c4)cc32)c1 [Compound I-449a]
6.30 to 6.60	Cn1nc(C#N)cc1C(=O)N[C@H]1CCCc2nn(-c3ccnc(C(F)(F)F)c3)cc21 [Compound I-113a]

pIC50	Structure (SMILES)
< 6.00	COc1cc(-c2nc3n(n2)CCC[C@H]3NC(=O)c2cc(C(F)(F)F)nn2C)ccn1 [Compound I-474b]
> 6.60	COc1cc(-c2cc3n(n2)CCC[C@@H]3NC(=O)c2ccnc(C(F)(F)F)c2)ccn1 [Compound I-364a]
> 6.60	Cn1nc(C2CC2)nc1C(=O)N[C@H]1CCn2nc(-c3ccnc(C(F)(F)F)c3)cc21 [Compound I-224a, (S)-3-Cyclopropyl-1-methyl-N-(2-(2-(trifluoromethyl)pyridin-4-yl)-5,6-dihydro-4H-pyrrolo[1,2-b]pyrazol-4-yl)-1H-1,2,4-triazole-5-carboxamide]
> 6.60	Cn1nc(C(F)(F)F)cc1C(=O)NC1CCCc2nc(-c3ccnc(C(F)(F)F)c3)oc21 (stereo not shown) [Compound I-83]
> 6.60	N#Cc1cccc(C(=O)N[C@@H]2CCCCc3oc(-c4ccnc(C(F)(F)F)c4)nc32)c1 [Compound I-160b, (R)-3-cyano-N-(2-(2-(trifluoromethyl)pyridin-4-yl)-5,6,7,8-tetrahydro-4H-cyclohepta[d]oxazol-4-yl)benzamide]
6.30 to 6.60	Cn1nc(C(F)(F)F)cc1C(=O)N[C@@H]1CCCCn2nc(-c3ccnc(C(F)(F)F)c3)cc21 [Compound I-385b]
> 6.60	O=C(N[C@H]1CCCc2nc(-c3cc(C4CC4)ncc3F)oc21)c1ccnc(OC(F)(F)F)c1 [Compound I-158a, (S)-N-(2-(2-Cyclopropyl-5-fluoropyridin-4-yl)-4,5,6,7-tetrahydrobenzo[d]oxazol-7-yl)-2-(trifluoromethoxy)isonicotinamide]
< 6.00	CC(F)(F)c1cc(-c2nc3c(o2)CCC[C@H]3NC(=O)c2cccc(F)c2)ccn1 [Compound I-508b, (R)—N-(2-(2-(1,1-difluoroethyl)pyridin-4-yl)-4,5,6,7-tetrahydrobenzo[d]oxazol-4-yl)-3-fluorobenzamide]
> 6.60	CC(F)(F)c1cc(-c2nc3c(o2)CCCC3NC(=O)c2cc(C(F)(F)F)n(C(F)F)n2)ccn1 (single isomer, unassigned) [Compound I-534]
> 6.60	COc1cc(C(=O)N[C@H]2CCCCn3nc(-c4ccnc(C(F)(F)F)c4)cc32)ccn1 [Compound I-329a, (S)-2-Methoxy-N-(2-(2-(trifluoromethyl)pyridin-4-yl)-5,6,7,8-tetrahydro-4H-pyrazolo[1,5-a]azepin-4-yl)isonicotinamide]
< 6.00	Cn1nc(C(F)(F)F)cc1C(=O)N[C@H]1CCCc2nn(-c3ccnc(C#N)c3)cc21 [Compound I-375a]
> 6.60	COc1cc(-c2cc3n(n2)CC[C@@H]3NC(=O)c2cnn(C(F)(F)F)c2)c(F)cn1 [Compound I-577a, (S)-N-(2-(5-Fluoro-2-methoxypyridin-4-yl)-5,6-dihydro-4H-pyrrolo[1,2-b]pyrazol-4-yl)-1-(trifluoromethyl)-1H-pyrazole-4-carboxamide]
> 6.60	Cc1cc(Cl)ccc1C(=O)N[C@H]1CCc2nn(-c3ccnc(C(F)(F)F)c3)cc21 [Compound I-95a]
> 6.60	COc1cc(C(=O)N[C@@H]2CCn3nc(-c4cc(C(F)(F)F)ncc4F)cc32)ccn1 [Compound I-485b]
> 6.60	COc1cc(-c2cc3n(n2)CC[C@@H]3NC(=O)c2cc(C(F)(F)F)nn2C)c(F)cn1 [Compound I-243a, (S)-N-(2-(5-Fluoro-2-methoxypyridin-4-yl)-5,6-dihydro-4H-pyrrolo[1,2-b]pyrazol-4-yl)-1-methyl-3-(trifluoromethyl)-1H-pyrazole-5-carboxamide]
< 6.00	O=C(NC1CCCc2nn(-c3ccnc(C(F)(F)F)c3)cc21)c1cccnc1 (racemic) [Compound I-32, (rac)-N-(2-(2-(Trifluoromethyl)pyridin-4-yl)-4,5,6,7-tetrahydro-2H-indazol-4-yl)nicotinamide]
> 6.60	Cn1nc(C(F)(F)F)cc1C(=O)N[C@H]1CCCn2nc(-c3ccnc(C4CC4)c3)nc21 [Compound I-201a, (S)—N-(2-(2-Cyclopropylpyridin-4-yl)-5,6,7,8-tetrahydro-[1,2,4]triazolo[1,5-a]pyridin-8-yl)-1-methyl-3-(trifluoromethyl)-1H-pyrazole-5-carboxamide]
> 6.60	Cn1nc(C(F)(F)F)cc1C(=O)N[C@H]1CCn2nc(-c3ccnc(C(C)(F)F)c3)cc21 [Compound I-537a, (S)-N-(2-(2-(1,1-Difluoroethyl)pyridin-4-yl)-5,6-dihydro-4H-pyrrolo[1,2-b]pyrazol-4-yl)-1-methyl-3-(trifluoromethyl)-1H-pyrazole-5-carboxamide]
> 6.60	Cn1nc(C(F)(F)F)cc1C(=O)N[C@H]1CCCCn2nc(-c3ccnc(C(F)(F)F)c3)nc21 (single isomer, unassigned) [I-272*]
> 6.60	COc1cc(C(=O)N[C@H]2CCc3nn(-c4ccnc(C(F)(F)F)c4)cc32)ccn1 [Compound I-332a, (S)-2-Methoxy-N-(2-(2-(trifluoromethyl)pyridin-4-yl)-2,4,5,6-tetrahydrocyclopenta[c]pyrazol-4-yl)isonicotinamide]
> 6.60	O=C(N[C@H]1CCCc2oc(-c3ccnc(C4CC4)c3)nc21)c1cccc(F)c1 [Compound I-131a, (S)-N-(2-(2-Cyclopropylpyridin-4-yl)-4,5,6,7-tetrahydrobenzo[d]oxazol-4-yl)-3-fluorobenzamide]

Structure (SMILES)	pIC50
O=C(N[C@H]1CCCn2nc(-c3ccnc(C(F)(F)F)c3)cc21)c1cnn(C(F)(F)F)c1C(F)(F)F [Compound I-529a, (S)-1,5-bis(trifluoromethyl)-N-(2-(2-(trifluoromethyl)pyridin-4-yl)-4,5,6,7-tetrahydropyrazolo[1,5-a]pyridin-4-yl)-1H-pyrazole-4-carboxamide]	> 6.60
